For the experiment, the target named is T1, dihydroceramide desaturase (Des1) (Homo sapiens, UniProt O15121).
T1 construct: gene DEGS1
T1 sequence (O15121 2-323): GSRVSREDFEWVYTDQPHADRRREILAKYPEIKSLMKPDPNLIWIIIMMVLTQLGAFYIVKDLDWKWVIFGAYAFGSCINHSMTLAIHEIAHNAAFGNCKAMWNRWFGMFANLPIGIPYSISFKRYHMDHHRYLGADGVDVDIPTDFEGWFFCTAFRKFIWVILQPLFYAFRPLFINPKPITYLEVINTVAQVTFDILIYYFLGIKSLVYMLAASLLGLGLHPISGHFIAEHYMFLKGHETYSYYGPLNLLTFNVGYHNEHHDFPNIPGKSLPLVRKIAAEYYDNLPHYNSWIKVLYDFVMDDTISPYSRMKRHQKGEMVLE
The experiment in a line: Des1 activity in intact Jurkat cells labeled with DhCer-C6-NBD, HPLC with fluorescence detection. The format is cell-based.

The structures appear in SMILES notation.

Regarding `O=C(NCc1ccncc1)C12CC3CC(C1)CC(c1ccc(Cl)cc1)(C3)C2` [ABC294640, 3-(4-chlorophenyl)-adamantane-1-carboxylic acid (pyridin-4-ylmethyl)amide], the IC50 (usually the point on the concentration scale where inhibition reaches its midpoint) was 10.2 µM. The same measure for `Oc1ccc(Nc2nc(-c3ccc(Cl)cc3)cs2)cc1` [SKi, 2-(p-hydroxyanilino)-4-(p-chlorophenyl)thiazole]: 0.63 to 0.69 µM.

The values are drawn from PMC4941342, “Proteasomal degradation of sphingosine kinase 1 and inhibition of dihydroceramide desaturase by the sphingosine kinase inhibitors, SKi or ABC294640, induces growth arrest in androgen-independent LNCaP-AI prostate cancer cells” (Oncotarget, 2016).
